Marks after values point to notes of the source that are not given here.
Test: amounts of β-lactam antibiotic, β-lactamase inhibitor (C18 reverse-phase LC, UV-VIS) and aminoglycoside (HPLC-ELSD) in solution over time
Assay type: physicochemical

C[C@]1(Cn2ccnn2)[C@H](C(=O)O)N2C(=O)C[C@H]2S1(=O)=O [Tazobactam sodium]
amount of component as percentage with respect to the amount at the initial time (Example 8: freeze-dried ceftriaxone sodium, tazobactam sodium, gentamicin sulfate, citrate pH 6.75, 2.5% fructose, 7 days 0° C., in 100 mL water, Time 0 h): 102.2% | amount of component as percentage with respect to the amount at the initial time (Example 8: freeze-dried ceftriaxone sodium, tazobactam sodium, gentamicin sulfate, citrate pH 6.75, 2.5% fructose, 7 days 0° C., in 100 mL water, Time 1 h): 97.53% | amount of component as percentage with respect to the amount at the initial time (Example 8: freeze-dried ceftriaxone sodium, tazobactam sodium, gentamicin sulfate, citrate pH 6.75, 2.5% fructose, 7 days 0° C., in 100 mL water, Time 2 h): 94.16% | amount of component as percentage with respect to the amount at the initial time (Example 8: freeze-dried ceftriaxone sodium, tazobactam sodium, gentamicin sulfate, citrate pH 6.75, 2.5% fructose, 7 days 0° C., in 100 mL water, Time 4 h): 94.58% | amount of component as percentage with respect to the amount at the initial time (Example 8: freeze-dried ceftriaxone sodium, tazobactam sodium, gentamicin sulfate, citrate pH 6.75, 2.5% fructose, 7 days 0° C., in 100 mL water, Time 6 h): 95.45% | amount of component as percentage with respect to the amount at the initial time (Example 8: freeze-dried ceftriaxone sodium, tazobactam sodium, gentamicin sulfate, citrate pH 6.75, 2.5% fructose, 7 days 0° C., in 100 mL water, Time 8 h): 94.44% | amount of component as percentage with respect to the amount at the initial time (Example 16: 10 mL of the final solution (cefoperazone sodium, tazobactam sodium, etimicin sulfate, citrate) + gentamicin sulfate 16 mg, Time 0 h): 93.36% | amount of component as percentage with respect to the amount at the initial time (Example 16: 10 mL of the final solution (cefoperazone sodium, tazobactam sodium, etimicin sulfate, citrate) + gentamicin sulfate 16 mg, Time 1 h): 104.8% | amount of component as percentage with respect to the amount at the initial time (Example 16: 10 mL of the final solution (cefoperazone sodium, tazobactam sodium, etimicin sulfate, citrate) + gentamicin sulfate 16 mg, Time 2 h): 100.0% | amount of component as percentage with respect to the amount at the initial time (Example 16: 10 mL of the final solution (cefoperazone sodium, tazobactam sodium, etimicin sulfate, citrate) + gentamicin sulfate 16 mg, Time 4 h): 96.58* % | amount of component as percentage with respect to the amount at the initial time (Example 16: 10 mL of the final solution (cefoperazone sodium, tazobactam sodium, etimicin sulfate, citrate) + gentamicin sulfate 16 mg, Time 6 h): 106.1* % | amount of component as percentage with respect to the amount at the initial time (Example 16: 10 mL of the final solution (cefoperazone sodium, tazobactam sodium, etimicin sulfate, citrate) + gentamicin sulfate 16 mg, Time 8 h): 107.1* % | amount of component as percentage with respect to the amount at the initial time (Example 16: freeze-dried cefoperazone sodium 4 g, tazobactam sodium 1 g, citrate pH 6.75, 7 days 0° C., in 100 mL water, 10 mL + etimicin sulfate 20 mg, room temperature, Time 0 h): 98.77% | amount of component as percentage with respect to the amount at the initial time (Example 16: freeze-dried cefoperazone sodium 4 g, tazobactam sodium 1 g, citrate pH 6.75, 7 days 0° C., in 100 mL water, 10 mL + etimicin sulfate 20 mg, room temperature, Time 1 h): 108.2% | amount of component as percentage with respect to the amount at the initial time (Example 16: freeze-dried cefoperazone sodium 4 g, tazobactam sodium 1 g, citrate pH 6.75, 7 days 0° C., in 100 mL water, 10 mL + etimicin sulfate 20 mg, room temperature, Time 2 h): 110.8% | amount of component as percentage with respect to the amount at the initial time (Example 16: freeze-dried cefoperazone sodium 4 g, tazobactam sodium 1 g, citrate pH 6.75, 7 days 0° C., in 100 mL water, 10 mL + etimicin sulfate 20 mg, room temperature, Time 4 h): 97.39% | amount of component as percentage with respect to the amount at the initial time (Example 16: freeze-dried cefoperazone sodium 4 g, tazobactam sodium 1 g, citrate pH 6.75, 7 days 0° C., in 100 mL water, 10 mL + etimicin sulfate 20 mg, room temperature, Time 6 h): 106.3% | amount of component as percentage with respect to the amount at the initial time (Example 16: freeze-dried cefoperazone sodium 4 g, tazobactam sodium 1 g, citrate pH 6.75, 7 days 0° C., in 100 mL water, 10 mL + etimicin sulfate 20 mg, room temperature, Time 8 h): 106.3% | amount of component as percentage with respect to the amount at the initial time (Example 20: ceftriaxone sodium 2 g, tazobactam sodium 2 g, gentamicin sulfate 160 mg, citrate pH 6.75, 200 mL water, room temperature, Time 0 h): 102.2% | amount of component as percentage with respect to the amount at the initial time (Example 20: ceftriaxone sodium 2 g, tazobactam sodium 2 g, gentamicin sulfate 160 mg, citrate pH 6.75, 200 mL water, room temperature, Time 1 h): 97.53% | amount of component as percentage with respect to the amount at the initial time (Example 20: ceftriaxone sodium 2 g, tazobactam sodium 2 g, gentamicin sulfate 160 mg, citrate pH 6.75, 200 mL water, room temperature, Time 2 h): 94.16% | amount of component as percentage with respect to the amount at the initial time (Example 20: ceftriaxone sodium 2 g, tazobactam sodium 2 g, gentamicin sulfate 160 mg, citrate pH 6.75, 200 mL water, room temperature, Time 4 h): 94.58% | amount of component as percentage with respect to the amount at the initial time (Example 20: ceftriaxone sodium 2 g, tazobactam sodium 2 g, gentamicin sulfate 160 mg, citrate pH 6.75, 200 mL water, room temperature, Time 6 h): 95.45% | amount of component as percentage with respect to the amount at the initial time (Example 20: ceftriaxone sodium 2 g, tazobactam sodium 2 g, gentamicin sulfate 160 mg, citrate pH 6.75, 200 mL water, room temperature, Time 8 h): 94.44%
